Measured values from article PMC7824787, “Design, Synthesis and In Vitro Investigation of Novel Basic Celastrol Carboxamides as Bio-Inspired Leishmanicidal Agents Endowed with Inhibitory Activity against Leishmania Hsp90” (Biomolecules, 2021).

Assays:
[1] = system: L. infantum promastigotes; assay: Morphological differentiation of Leishmania promastigotes; assay type: cell-based, Leishmania infantum; details: 50 ng/mL, 23 °C, 48 h (Figure 6)
Procedure: L. infantum promastigotes were diluted in complete medium to 4 × 10^7 parasites/mL and 250 µL of the suspension were seeded into the 24 wells plates and incubated at 23 °C in the presence of geldanamycin, CE or compound 2 at the final concentration of 50 ng/mL. Cultures without drugs incubated at 23 °C or at 37 °C were used as negative and positive control, respectively. After 24 or 48 h of incubation, parasite morphology was evaluated by optical microscopy at 100× (Eclipse Ti Series, Nikon, Minato, Tokyo, Japan) on Giemsa stained smears (a mixture of eosin, methylene blue and Azure-B diluted 1:10). The percent of round promastigotes in treated and non-treated cells was determined. Images were taken at the same magnification by using a digital camera (Nikon Digital Sight). About 500 promastigotes were counted in 4 random fields.
The compounds were incubated (23 °C, physiological pH) with L. infantum promastigotes at a sub-IC50 concentration of 50 ng/mL. […] After 24 h and 48 h the presence of round, amastigote-like cells, was monitored (Figure 6). A negative and positive control experiment (NC and PC, Figure 6a,b) were also conducted growing the promastigotes at 23 °C and 37 °C, respectively.

LbHsp90 = LbHsp90 (Leishmania braziliensis, UniProt A4HL70); assay: LbHsp90 ATPase kinetics (NADH-coupled enzymatic cascade); assay type: biochemical; details: for LbHsp90 Inhibition (%): compound 50 μM, 3.5 μM LbHsp90, 1 mM ATP; for inhibition at 50 µM: read-out: LbHsp90 Inhibition (%), compound 50 μM, 3.5 μM LbHsp90, 1 mM ATP
Procedure: The reaction was initiated by the addition of ATP (1 mM) and absorbance changes at 346 nm were monitored for 30 min at 30 °C.
Native LbHsp90 kinetics was measured as described but in the absence of DMSO. Two control experiments were run as follows: • (1) Efficiency of the enzymatic cascade by the used compounds: HEPES buffer (20 mM, pH 7.5) containing KCl (100 mM), MgCl2 (1 mM), ADP (1 mM), NADH (0.18 mM), L-lactate dehydrogenase (4 U mL^−1), phosphoenolpyruvate (1 mM), pyruvate kinase (2.5 U mL^−1); • (2) Interference of the tested compound(s) with the enzymatic cascade: HEPES buffer (20 mM, pH 7.5) containing KCl (100 mM), MgCl2 (1 mM), ADP (1 mM), NADH (0.18 mM), L-lactate dehydrogenase (4 U mL^−1), phosphoenolpyruvate (1 mM), pyruvate kinase (2.5 U mL^−1) and 50 μM compound.
Accordingly, an in vitro assay developed for the evaluation of non-competitive allosteric modulators, which exploits ATPase kinetics data, was used. Briefly, the decrease in absorbance deriving from the continuous oxidation of NADH to NAD^+ produced by a multi-enzymatic cascade triggered by LbHp90-catalyzed ATP hydrolysis is followed spectrophotometrically over the course of 15 min (for details see Appendix B). All the experiments were normalized using the native ATPase activity of LbHsp90 measured in the presence of DMSO, the co-solvent selected for compounds solubilization.
Figure A1 Enzymatic cascade reactions to spectroscopically evaluate L. Hsp90 ATPase kinetics. The ADP produced by ATP hydrolysis during the chaperone cycle reacts with PEP (phosphoenolpyruvate) to form pyruvate in a reaction catalyzed by the enzyme pyruvate kinase (PK), whereby ATP is regenerated. Pyruvate then continues the cascade process and is reduced to lactic acid by action of lactate dehydrogenase (LDH), whereby NADH is oxidized to NAD^+.
LbHsp90 inhibition (%) = (1 − k/knative) * 100 k = ΔAbs/min = extrapolated apparent kinetic constant (Abs/min)

LbHsp90, sequence (A4HL70 entry or part of it): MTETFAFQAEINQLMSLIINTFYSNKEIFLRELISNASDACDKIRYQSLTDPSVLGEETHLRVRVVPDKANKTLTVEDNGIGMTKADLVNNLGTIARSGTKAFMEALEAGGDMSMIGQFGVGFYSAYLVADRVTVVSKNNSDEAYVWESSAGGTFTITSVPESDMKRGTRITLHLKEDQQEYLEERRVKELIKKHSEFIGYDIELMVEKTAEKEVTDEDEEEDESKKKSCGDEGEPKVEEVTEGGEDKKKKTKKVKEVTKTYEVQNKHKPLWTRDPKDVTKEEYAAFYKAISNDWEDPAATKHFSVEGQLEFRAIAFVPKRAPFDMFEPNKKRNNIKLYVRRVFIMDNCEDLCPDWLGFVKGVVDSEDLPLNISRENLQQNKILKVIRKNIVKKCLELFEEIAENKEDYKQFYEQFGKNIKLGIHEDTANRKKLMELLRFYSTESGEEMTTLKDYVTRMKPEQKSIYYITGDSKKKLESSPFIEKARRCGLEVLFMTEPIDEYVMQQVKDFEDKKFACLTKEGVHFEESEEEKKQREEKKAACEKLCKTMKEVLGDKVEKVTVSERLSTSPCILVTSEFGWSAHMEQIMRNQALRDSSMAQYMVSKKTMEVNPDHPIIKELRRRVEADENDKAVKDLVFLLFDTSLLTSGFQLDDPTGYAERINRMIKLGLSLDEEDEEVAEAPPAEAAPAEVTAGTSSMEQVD

What does the source list for CC1=C(O)C(=O)C=C2C1=CC=C1[C@@]2(C)CC[C@@]2(C)[C@@H]3C[C@](C)(C(=O)O)CC[C@]3(C)CC[C@]12C [CE, celastrol]?
round amastigote-like cells (morphological differentiation) [1]: neither CE nor compound 3 produced this effect; LbHsp90 Inhibition (%) (LbHsp90): 28.9 ± 5.4%; inhibition at 50 µM (LbHsp90): 30%

For CC1=C(O)C(=O)C=C2C1=CC=C1[C@@]2(C)CC[C@@]2(C)[C@@H]3C[C@](C)(C(=O)NCCN4CCCC4)CC[C@]3(C)CC[C@]12C [compound 3, (2R,4aS,6aS,12bR,14aS,14bR)-10-hydroxy-2,4a,6a,9,12b,14a-hexamethyl-11-oxo-N-(2-(pyrrolidin-1-yl)ethyl)-1,2,3,4,4a,5,6,6a,11,12b,13,14,14a,14b-tetradecahydropicene-2-carboxamide], which “round amastigote-like cells (morphological differentiation)” value [1] is on record?
Its value is “neither CE nor compound 3 produced this effect”.

What about the “LbHsp90 Inhibition (%)” value (LbHsp90) of the same molecule?
The value was 97.8 ± 1.2%.

What about the inhibition at 50 µM (LbHsp90) of the same molecule?
Its inhibition at 50 µM is 95%.
